Several values for one entry are separate records, joined by “and”; a condition that tells them apart may be missing. Equal values may be shown once.
Columns and labels:
[1] = cynomolgus monkey, in vivo
From the text: Animals. […] Solvent was used as vehicle for the control group.
The animals used in this analysis were cynomolgus monkeys (Macaca fascicularis), supplied by Centre de Recherches Primatologiques, Port Louis, Mauritius. Two animals were used per group and sex. At the beginning of the treatment period, the animals were at least 24 months old, with a body weight of approximately 3 kg. Animals were kept under standard conditions for animal welfare. Animals were examined daily for mortality, food consumption and clinical observations. Body weight was recorded once per week.

[2] = Blood pressure; format: in vivo, cynomolgus monkeys (Macaca fascicularis); settings: for Blood Pressure Difference: Week 2 vs Week-1; for Blood Pressure Week-1: before dosing
[3] = Haematology; format: in vivo, cynomolgus monkeys (Macaca fascicularis)
From the text: (§1) Blood sampling. […] Blood samples were taken from a peripheral vein.

[4] = tested on: liver, kidney, pituitary, muscle, bone, duodenum, spleen and trachea; design: species or system cynomolgus monkeys (Macaca fascicularis); settings: cynomolgus monkey, in vivo
Protocol: Tissue sampling. Animals were killed by deep anaesthesia induced by intravenous injection of Pentothal®, followed by exsanguinations. All relevant tissues were sampled for histopathology and gene expression profiling. The following tissue samples were processed for analysis: liver, kidney, pituitary, muscle, bone, duodenum, spleen and trachea. Samples for histopathology were fixed in phosphate-buffered 10% formalin. Bone demineralization was performed with 10% formic acid. Tissue samples were embedded in Paraplast® and sectioned at 4 microns, for staining with haematoxylin and eosin. Samples for gene expression profiling were quickly frozen in liquid nitrogen immediately after excision, stored on dry ice and subsequently in a deep-freezer at approximately −80° C. until further use. All selected tissues for gene expression profiling were examined histopathologically.

[5] = Urinary analysis
[6] = Hormone determinations in serum; format: in vivo, cynomolgus monkeys (Macaca fascicularis); settings: males
From the text: as §1

[7] = urine, females, day −8 (pre-dose)

CC(C)C[C@H](NC(=O)[C@H](CCCCN)NC(=O)CNC(=O)[C@H](CC(C)C)NC(=O)[C@@H](NC(=O)[C@@H]1CSSC[C@H](N)C(=O)N[C@@H](CO)C(=O)N[C@@H](CC(N)=O)C(=O)N[C@@H](CC(C)C)C(=O)N[C@@H](CO)C(=O)N[C@@H]([C@@H](C)O)C(=O)N1)C(C)C)C(=O)N[C@@H](CO)C(=O)N[C@@H](CCC(N)=O)C(=O)N[C@@H](CCC(=O)O)C(=O)N[C@@H](CC(C)C)C(=O)N[C@@H](Cc1c[nH]cn1)C(=O)N[C@@H](CCCCN)C(=O)N[C@@H](CC(C)C)C(=O)N[C@@H](CCC(N)=O)C(=O)N[C@H](C(=O)N[C@@H](Cc1ccc(O)cc1)C(=O)N1CCC[C@H]1C(=O)N[C@@H](CCCNC(=N)N)C(=O)N[C@H](C(=O)N[C@@H](CC(N)=O)C(=O)N[C@H](C(=O)NCC(=O)N[C@@H](CO)C(=O)NCC(=O)N[C@H](C(=O)N1CCC[C@H]1C(N)=O)[C@@H](C)O)[C@@H](C)O)[C@@H](C)O)[C@@H](C)O [Salmon Calcitonin]
Food Consumption Avg., Both animals [1]: 72.9 | Blood Pressure Week 2 ([2]; Female, first line per animal): 82 mmHg and 44 mmHg | Blood Pressure Difference ([2]; Female, first line per animal): −16 mmHg and −48 mmHg | Blood Pressure Week-1 ([2]; Female, first line per animal): 98 mmHg and 92 mmHg | Blood Pressure Week 2 ([2]; Female, second line per animal): 25 mmHg and 30 mmHg | Blood Pressure Difference ([2]; Female, second line per animal): −25 mmHg and 4 mmHg | Blood Pressure Week-1 ([2]; Female, second line per animal): 50 mmHg and 26 mmHg | Blood Pressure Week 2 ([2]; Male, first line per animal): 99 mmHg and 79 mmHg | Blood Pressure Difference ([2]; Male, first line per animal): −36 mmHg and −23 mmHg | Blood Pressure Week-1 ([2]; Male, first line per animal): 135 mmHg and 102 mmHg | Blood Pressure Week 2 ([2]; Male, second line per animal): 40 mmHg and 35 mmHg | Blood Pressure Difference ([2]; Male, second line per animal): −21 mmHg | Blood Pressure Week-1 ([2]; Male, second line per animal): 61 mmHg and 56 mmHg | L ([3]; females, d 7): 4.61 G/L and 6.21 G/L | MCH ([3]; females, d 7): 18.6 pg and 19.4 pg | MCV ([3]; females, d 7): 64 fL and 68 fL | PCV ([3]; females, d 7): 0.4 l/l and 0.44 l/l | PLAT ([3]; females, d 7): 594 G/L and 356 G/L | RBC ([3]; females, d 7): 6.2 T/l and 6.6 T/l | WBC ([3]; females, d 7): 9.5 G/l and 17 G/l | monocyte count ([3]; females, d 7): 0.63 G/l and 0.82 G/l | B ([3]; females, d 13): 0.03 G/L and 0.05 G/L | L ([3]; females, d 13): 5.18 G/L and 6.58 G/L | MCH ([3]; females, d 13): 19.5 pg | MCV ([3]; females, d 13): 64 fL and 65 fL | PCV ([3]; females, d 13): 0.33 l/l and 0.37 l/l | PLAT ([3]; females, d 13): 451 G/L and 229 G/L | RBC ([3]; females, d 13): 5.2 T/l and 5.7 T/l | WBC ([3]; females, d 13): 12 G/l and 13.3 G/l | monocyte count ([3]; females, d 13): 0.69 G/l and 0.39 G/l | B ([3]; females, d −8 (before dosing)): 0.02 G/L and 0.01 G/L | E ([3]; females, d −8 (before dosing)): 0.03 G/L | L ([3]; females, d −8 (before dosing)): 3.26 G/L and 4.79 G/L | MCH ([3]; females, d −8 (before dosing)): 19.1 pg and 19.8 pg | MCV ([3]; females, d −8 (before dosing)): 61 fL and 65 fL | PCV ([3]; females, d −8 (before dosing)): 0.4 l/l and 0.45 l/l | PLAT ([3]; females, d −8 (before dosing)): 549 G/L and 304 G/L | RBC ([3]; females, d −8 (before dosing)): 6.5 T/l and 7 T/l | WBC ([3]; females, d −8 (before dosing)): 7 G/l and 8.3 G/l | monocyte count ([3]; females, d −8 (before dosing)): 0.25 G/l and 0.3 G/l | B ([3]; males, d 7): 0.04 G/l | E ([3]; males, d 7): 0.10 G/l and 0.09 G/l | HB ([3]; males, d 7): 11.7 g/dL and 11.5 g/dL | L ([3]; males, d 7): 6.79 G/l and 5.57 G/l | M ([3]; males, d 7): 0.73 G/l and 0.45 G/l | MCH ([3]; males, d 7): 19.9 pg and 19.2 pg | MCHC ([3]; males, d 7): 30.3 g/dL and 31.3 g/dL | MCV ([3]; males, d 7): 66 fL and 62 fL | PCV ([3]; males, d 7): 0.39 l/l and 0.37 l/l | PLAT ([3]; males, d 7): 396 G/l and 330 G/l | RBC ([3]; males, d 7): 5.9 T/l and 6.0 T/l | WBC ([3]; males, d 7): 11.8 G/l and 9.5 G/l | B ([3]; males, d 13): 0.03 G/l | HB ([3]; males, d 13): 11.2 g/dL and 10.3 g/dL | L ([3]; males, d 13): 5.38 G/l and 4.92 G/l | M ([3]; males, d 13): 0.57 G/l and 0.76 G/l | MCH ([3]; males, d 13): 20.2 pg and 19.2 pg | MCHC ([3]; males, d 13): 29.0 g/dL and 28.7 g/dL | MCV ([3]; males, d 13): 70 fL and 67 fL | PCV ([3]; males, d 13): 0.39 l/l and 0.36 l/l | PLAT ([3]; males, d 13): 302 G/l and 389 G/l | RBC ([3]; males, d 13): 5.6 T/l and 5.4 T/l | WBC ([3]; males, d 13): 8.0 G/l and 8.8 G/l | HB ([3]; males, d −6 (before dosing)): 12.6 g/dL and 13.6 g/dL | L ([3]; males, d −6 (before dosing)): 4.00 G/l and 6.55 G/l | MCH ([3]; males, d −6 (before dosing)): 20.2 pg and 19.7 pg | MCHC ([3]; males, d −6 (before dosing)): 31.4 g/dL and 32.0 g/dL | MCV ([3]; males, d −6 (before dosing)): 64 fL and 62 fL | PCV ([3]; males, d −6 (before dosing)): 0.40 l/l and 0.43 l/l | PLAT ([3]; males, d −6 (before dosing)): 351 G/l and 247 G/l | RBC ([3]; males, d −6 (before dosing)): 6.3 T/l and 6.9 T/l | WBC ([3]; males, d −6 (before dosing)): 7.7 G/l and 11.5 G/l | inflammatory and regenerative changes in the kidneys [4]: slightly higher incidence | CREAT (urine) ([5]; males, day 13): 4620 µmol/L and 4400 µmol/L | Ca2+ (urine) ([5]; males, day 13): 18.25 mmol/L and 23.40 mmol/L | Cl− (urine) ([5]; males, day 13): 55 mmol/L and 68 mmol/L | I.PHOS (urine) ([5]; males, day 13): 2.50 mmol/L and 3.00 mmol/L | K+ (urine) ([5]; males, day 13): 78 mmol/L and 76 mmol/L | Mg2+ (urine) ([5]; males, day 13): 7.05 mmol/L and 9.80 mmol/L | Na+ (urine) ([5]; males, day 13): 14 mmol/L and 15 mmol/L | VOLUME (urine) ([5]; males, day 13): 68 mL and 54 mL | I.PHOS (urine) ([5]; males, day −6 (before dosing)): 4.35 mmol/L and 5.33 mmol/L | LDH (urine) ([5]; males, day −6 (before dosing)): 9.0 IU/L and 13.0 IU/L | NAG (urine) ([5]; males, day −6 (before dosing)): 2.7 IU/l and 4.2 IU/l | VOLUME (urine) ([5]; males, day −6 (before dosing)): 62 mL and 37 mL | CREAT ([5]; urine, females, day 13): 4800 µmol/L and 4200 µmol/L | Ca2+ ([5]; urine, females, day 13): 17.55 mmol/L and 12.70 mmol/L | Cl− ([5]; urine, females, day 13): 63 mmol/L and 65 mmol/L | I.PHOS ([5]; urine, females, day 13): 5.1 mmol/L and 5.8 mmol/L | K+ ([5]; urine, females, day 13): 53 mmol/L and 57 mmol/L | Mg2+ ([5]; urine, females, day 13): 5.40 mmol/L and 4.85 mmol/L | NAG ([5]; urine, females, day 13): 2.8 IU/l and 2.7 IU/l | Na+ ([5]; urine, females, day 13): 40 mmol/L and 32 mmol/L | VOLUME ([5]; urine, females, day 13 of dosing): 67 mL and 49 mL | CREAT ([5]; urine, females, day −7 (pre-dose)): 6920 µmol/L and 13380 µmol/L | CREAT [5, 7]: 10780 µmol/L and 11260 µmol/L | Ca2+ [5, 7]: 3.00 mmol/L and 3.50 mmol/L | K+ [5, 7]: 104 mmol/L and 172 mmol/L | Mg2+ [5, 7]: 3.35 mmol/L and 3.80 mmol/L | Na+ [5, 7]: 98 mmol/L and 156 mmol/L | ACTH ([6]; day 7): 87 pg/mL and 78 pg/mL | ALDOST ([6]; day 7): 1058 pg/mL and 987 pg/mL | C-PEPTI ([6]; day 7): 1.70 ng/mL and 1.20 ng/mL | CORTISOL ([6]; day 7): 979 nmol/L and 1523 nmol/L | CT ([6]; day 7): 4.0 pg/mL and 2.5 pg/mL | GASTRIN ([6]; day 7): 83 pg/mL and 128 pg/mL | GLUCAG ([6]; day 7): 247 pg/mL and 218 pg/mL | INSULIN ([6]; day 7): 14.0 mU/l and 10.0 mU/l | IPH ([6]; day 7): 75 pg/mL and 62 pg/mL | S.MED ([6]; day 7): 268 ng/mL and 307 ng/mL | T3 ([6]; day 7): 2.35 nmol/L and 1.65 nmol/L | T4 ([6]; day 7): 64 nmol/L and 79 nmol/L | VD25-H ([6]; day 7): 50 nmol/L and 44 nmol/L | ACTH ([6]; day 13): 87 pg/mL and 73 pg/mL | ALDOST ([6]; day 13): 819 pg/mL and 977 pg/mL | C-PEPTI ([6]; day 13): 1.80 ng/mL and 2.30 ng/mL | CORTISOL ([6]; day 13): 1611 nmol/L and 1709 nmol/L | G.H. ([6]; day 13): 16.2 ng/mL and 15.7 ng/mL | GASTRIN ([6]; day 13): 88 pg/mL and 136 pg/mL | GLUCAG ([6]; day 13): 428 pg/mL and 503 pg/mL | INSULIN ([6]; day 13): 17.0 mU/l and 22.0 mU/l | IPH ([6]; day 13): 78 pg/mL and 71 pg/mL | PROLACT ([6]; day 13): 4.6 ng/mL and 6.6 ng/mL | S.MED ([6]; day 13): 332 ng/mL and 384 ng/mL | T3 ([6]; day 13): 2.51 nmol/L and 1.90 nmol/L | T4 ([6]; day 13): 47 nmol/L and 65 nmol/L | VD25-H ([6]; day 13): 49 nmol/L and 45 nmol/L | CORTISOL ([6]; day −6 (pre-dose)): 2316 nmol/L and 1578 nmol/L | CT ([6]; day −6 (pre-dose)): 6.7 pg/mL and 5.1 pg/mL | G.H. ([6]; day −6 (pre-dose)): 11.5 ng/mL and 14.6 ng/mL | GLUCAG ([6]; day −6 (pre-dose)): 905 pg/mL and 869 pg/mL | T3 ([6]; day −6 (pre-dose)): 1.06 nmol/L and 1.48 nmol/L | T4 ([6]; day −6 (pre-dose)): 53 nmol/L and 62 nmol/L | TESTO ([6]; day −6 (pre-dose)): 8.5 nmol/L and 9.5 nmol/L | VD25-H ([6]; day −6 (pre-dose)): 63 nmol/L and 62 nmol/L | ACTH ([6]; day −6 relative to start of dosing (pre-dose)): 98 pg/mL and 115 pg/mL
